Reference: PubChem BioAssay (NCI)
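Dose response: 5 concentrations. Exposure: 48 h. Format: 96-well plates. Endpoint: linear interpolation; highest concentration if not reached. At the TGI there is no net growth.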

What was measured:
Test in all cases: NCI-60 cell line screen, 48 h
KM12 colon = test system: KM12 colon
HOP-92 NSCLC = test system: HOP-92 NSCLC
A498 renal = test system: A498 renal
SF-268 CNS = test system: SF-268 CNS
MOLT-4 leukemia = test system: MOLT-4 leukemia
SW-620 colon = test system: SW-620 colon
OVCAR-4 ovarian = test system: OVCAR-4 ovarian
A549 NSCLC = test system: A549 NSCLC
HCT-15 colon = test system: HCT-15 colon
U251 CNS = test system: U251 CNS
COLO 205 colon = test system: COLO 205 colon
SK-MEL-28 melanoma = test system: SK-MEL-28 melanoma
MCF7 breast = test system: MCF7 breast
UO-31 renal = test system: UO-31 renal
HT29 colon = test system: HT29 colon
SK-MEL-2 melanoma = test system: SK-MEL-2 melanoma
CAKI-1 renal = test system: CAKI-1 renal
HCT-116 colon = test system: HCT-116 colon
NCI-H522 lung = test system: NCI-H522 lung
ACHN renal = test system: ACHN renal

Structure (SMILES) | TGI (KM12 colon) [µM] | TGI (HOP-92 NSCLC) [µM] | TGI (A498 renal) [µM] | TGI (SF-268 CNS) [µM] | TGI (MOLT-4 leukemia) [µM] | TGI (SW-620 colon) [µM] | TGI (OVCAR-4 ovarian) [µM] | TGI (A549 NSCLC) [µM] | TGI (HCT-15 colon) [µM] | TGI (U251 CNS) [µM] | TGI (COLO 205 colon) [µM] | TGI (SK-MEL-28 melanoma) [µM] | TGI (MCF7 breast) [µM] | TGI (UO-31 renal) [µM] | TGI (HT29 colon) [µM] | TGI (SK-MEL-2 melanoma) [µM] | TGI (CAKI-1 renal) [µM] | TGI (HCT-116 colon) [µM] | TGI (NCI-H522 lung) [µM] | TGI (ACHN renal) [µM]
NC(=S)N/N=C/c1ccc(OC(=O)COc2ccccc2Cl)cn1 | > 100 | > 90.3 | > 100 | > 100 | > 88.7 | > 100 | > 100 | > 100 | > 100 | > 100 | > 100 | > 100 | > 100 | 98.5 | > 100 | > 100 | > 100 | > 90 | > 77.2 | 
Cc1nc(N(CCO)CCO)c2sc(=S)n(-c3ccccc3)c2n1 | > 100 | > 100 | > 100 | > 100 | > 100 | > 100 |  | > 100 |  | > 100 | > 100 | > 100 |  | > 100 | > 100 | > 100 |  | > 100 | > 100 | > 100
COc1cc(Cc2ccc3c(c2C#N)N(C)c2ccccc2S3)cc(OC)c1OC | > 100 | > 100 | > 100 | > 100 | > 100 | > 100 | > 100 | > 100 | 61.3 | > 100 | > 100 | > 100 |  | > 100 | > 100 | > 100 |  | > 100 | > 100 | > 100
CCOC(=O)C(=O)Nc1cccc(C)c1C | > 100 | > 100 | > 100 | > 100 | > 100 | > 100 | > 100 | > 100 | > 100 | > 100 | > 100 | > 100 |  | > 100 | > 100 | > 100 | > 100 | > 100 | > 100 | > 100
